From patent US6395727B1, “Method of treating Bulimia Nervosa and related eating disorders by administration of atypical antipsychotic medications” (The Cincinnati Children's Hospital Research Foundation, priority 1999, dated 2002)
Where two headings read alike, the source gives them in different places.

Assays:
Bulimia Nervosa [1] = experiment: therapeutic trial of an antidepressant (fluoxetine) before the risperidone trial, same patient; type: in vivo, human; settings: fluoxetine 20 mg PO qam, approximately 4 months
[2] = cited from earlier work
Bulimia Nervosa [3] = tested on: Bulimia Nervosa
[4] = some mammals; cited from earlier work
[5] = week four, risperidone 1.5 mg PO at bedtime, fluoxetine 20 mg PO QAM continued

CNCCC(Oc1ccc(C(F)(F)F)cc1)c1ccccc1 (stereo not drawn) [fluoxetine]
bingeing and purging (Bulimia Nervosa [1]): has not subsided
depressive symptoms (Zung Depression Scores and self-report) (Bulimia Nervosa [1]): remission of depressive symptoms

Cc1cc2c(s1)Nc1ccccc1N=C2N1CCN(C)CC1 [Olanzapine, olanzapine]
weight gain ([2]; in some cases): up to 1 pound per week

Cc1nc2n(c(=O)c1CCN1CCC(c3noc4cc(F)ccc34)CC1)CCCC2 [risperidone, 3-[2-[4-(6-fluoro-1,2-benzisoxazol-3-yl)-1-piperidinyl]ethyl]-6,7,8,9-tetrahydro-2-methyl-4H-pyrido[1,2-a]pyrimidin-4-one]
cessation of symptoms (Bulimia Nervosa [3]; after two weeks, risperidone 0.5 mg PO twice per day, fluoxetine 20 mg PO QAM continued): has not had any cessation of symptoms
improvement in bulimic symptomatology (journal entries) (Bulimia Nervosa [3]; conclusion of 8-week study, risperidone 1.5 mg PO QHS plus fluoxetine): 50%
body image scores improved (Bulimia Nervosa [3]; conclusion of 8-week study, risperidone 1.5 mg PO QHS plus fluoxetine, self-rating scale): 50%
differences in baseline and final scores of the anxiety and depression scales (Bulimia Nervosa [3]; conclusion of 8-week study, risperidone 1.5 mg PO QHS plus fluoxetine, self-rating scales): no appreciable differences
reduction in bulimic symptomatology (patient's journal) (Bulimia Nervosa [3]; [5]): 30%
side effects to the medications (Bulimia Nervosa [3]; [5]): no side effects
weight gain ([2]; in vivo): minimal
white blood cell count ([2]; in vivo): remains unaffected

OCCOCCN1CCN(C2=Nc3ccccc3Sc3ccccc32)CC1 [Quetiapine, quetiapine]
cataract formation [4]: cause cataract formation
